{"source": "patent US20130303479A1", "about": "“Antiretroviral Cyclonucleoside Compositions and Methods and Articles of Title of Invention Manufacture Therewith” (priority 2011, published 2013)", "key": {"[1]": {"test_system": "vsv-g pseudotyped HIV-1 virus", "type": "cell-based"}, "[2]": {"test_system": "HIV-1 (wt) virus", "type": "cell-based", "experimental": "G11 HIV reporter cells (200K) were seeded in 5 ml falcon tubes (RPMI+10% FBS) and incubated with the indicated amounts of NSC129220 (CAS 10212-28-9) for one hour before infection with HIV-1 (wt) virus (250 ng). Samples were stained with propidium iodide and analyzed for GFP expression via flow cytometer at 48 and 72 hours post infection. (See FIG. 2).\nExample FACS dot plots of live G11 cells expressing HIV induced expression of GFP. […] (See FIG. 27)."}, "[3]": {"test_system": "vsv-g pseudotyped HIV-1 virus", "type": "cell-based", "remark": "listed apart in the source"}, "[4]": {"target": "Human recombinant dCK (Homo sapiens, UniProt P27707)", "sequence (P27707 whole entry)": "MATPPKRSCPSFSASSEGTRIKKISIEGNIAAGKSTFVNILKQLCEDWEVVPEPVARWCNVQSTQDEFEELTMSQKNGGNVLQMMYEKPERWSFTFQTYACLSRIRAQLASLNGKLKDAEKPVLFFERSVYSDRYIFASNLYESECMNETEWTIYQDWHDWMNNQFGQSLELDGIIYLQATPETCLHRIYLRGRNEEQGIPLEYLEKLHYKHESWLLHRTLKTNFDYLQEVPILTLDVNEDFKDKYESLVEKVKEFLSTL", "test": "dCK inhibition curve with deoxyinosine as substrate", "type": "biochemical", "settings": "deoxyinosine (dIR) substrate, duplicate", "experimental": "Inhibiting the activity of the dCK enzyme is useful. […] Human recombinant dCK activity was characterized using deoxyinosine (dIR) as a substrate. Assays were performed in duplicate in 200 μL of reaction mixture (96-well plate). Reactions were started by adding dIR at various concentrations and the percent inhibition was determined as compared to the positive control via spectrophotometer. […] (See FIG. 35)."}, "[5]": {"target": "T1, reverse transcriptase (RT) (Human immunodeficiency virus type 1 group M subtype B, UniProt P03366)", "T1 construct": "Results of the Roche reverse transcriptase (AT) assay kit; purchased Roche", "test": "Roche reverse transcriptase assay kit", "type": "biochemical", "settings": "indicated amounts", "experimental": "Results of the Roche reverse transcriptase […] assay kit utilizing the indicated amounts of NSC166641. RT activity was measured as a percentage compared to the positive control. […] (See FIG. 9)."}, "[6]": {"settings": "in vivo; cited from earlier work"}, "[7]": {"test_system": "HIV", "test": "EC50 stated in embodiments, test not specified", "type": "cell-based"}, "[8]": {"test_system": "HIV-1 (wt)", "test": "Inhibition of HIV replication in primary peripheral blood mononuclear cells (p24 ELISA)", "type": "cell-based", "settings": "Human immunodeficiency virus 1, PBMC, read-out: EC50, inhibition of HIV replication", "experimental": "Human peripheral blood mononuclear cells (PBMCs) purified from donors were cultured (RPMI+10% FBS) and stimulated pre-infection (24 hrs) and every 3 days for three weeks with 2 ng/ml of phytoheaemagglutinin (PHA) and 1 U/ml IL-2. 24 hours following the initial stimulation the samples were incubated for one hour with the indicated amounts of NSC166641 and then infected with 300 ng HIV-1 (wt). Samples were analyzed via ELISA p24. (See FIG. 7)."}, "[9]": {"test_system": "HIV", "test": "Inhibition of HIV replication in experimental T cell cancer lines", "type": "cell-based"}, "[10]": {"test_system": "cells", "settings": "cited from earlier work"}}, "note": "“Also recorded” adds a separate entry of the source."}
{"smiles": "CC(=O)O.N=c1ccn2c(n1)OC1C(O)C(CO)OC12", "note": "(centres unmarked) [NSC129220, O2,2′-cyclocytidine monoacetate]", "values": [{"measurement": "dose-dependent activity (luciferase)", "setting": "[1]", "value": "Dose-dependent activity was detected"}, {"measurement": "lowest dose at which anti-HIV activity was seen", "setting": "[1]", "value": 40, "unit": "µM"}, {"measurement": "cell viability", "setting": "[2]; FACS GFP assay, treated reporter cells (FIG. 27)", "value": "> 60", "unit": "%"}, {"measurement": "inhibition of HIV induced GFP expression (confirmation of screen)", "setting": "[2]; live G11 cells, FACS dot plots", "value": "inhibition of HIV"}, {"measurement": "rescue of luciferase expression by deoxycytidine", "setting": "[3]", "value": "Addition of dC is able to rescue luciferase expression in treated cells"}]}
{"smiles": "O=C(O)c1ccccc1", "note": "[Benzoic acid]", "values": [{"measurement": "anti-HIV activity in screen (luciferase expression)", "setting": "[1]", "value": "Activity was not detected"}]}
{"smiles": "Cl.N=c1ccn2c(n1)O[C@H]1[C@H](O)[C@@H](CO)O[C@H]12", "note": "[O2,2′-cyclocytidine hydrochloride]", "values": [{"measurement": "lowest dose at which anti-HIV activity was seen", "setting": "[1]", "value": 40, "unit": "µM"}]}
{"smiles": "O=C1CN=C(c2ccc[nH]2)c2cc(Cl)ccc2N1", "note": "[benzodiazipen, Benzodiazepen]", "values": [{"measurement": "anti-HIV activity in screen (luciferase expression)", "setting": "[1]", "value": "Anti-HIV activity was detected"}]}
{"smiles": "CCOC(N)=O", "note": "[ethyl carbamate]", "values": [{"measurement": "anti-HIV activity in screen (luciferase expression)", "setting": "[1]", "value": "Activity was not detected"}]}
{"smiles": "c1ccc2ccccc2c1", "note": "[napthalen]", "values": [{"measurement": "anti-HIV activity in screen (luciferase expression)", "setting": "[1]", "value": "Activity was not detected"}]}
{"smiles": "N=c1nc2n(cc1F)[C@@H]1O[C@H](CO)[C@@H](O)[C@@H]1O2", "note": "[AAFC, 5-fluoro-2,2′cyclocytidine]", "values": [{"measurement": "IC50", "setting": "[4]", "value": 32000, "unit": "nM"}, {"measurement": "dose dependent effect on Clone 64 cells", "setting": "[1]", "value": "dose dependent effect"}, {"measurement": "dose-dependent activity (luciferase)", "setting": "[1]", "value": "Dose-dependent activity was detected"}, {"measurement": "lowest dose at which anti-HIV activity was seen", "setting": "[1]", "value": 40, "unit": "µM"}, {"measurement": "inhibition of RT activity vs positive control", "setting": "[5]", "value": "little or no inhibition of RT"}, {"measurement": "fraction of reagent passed through the body unchanged", "setting": "[6]", "value": "over 80%"}, {"measurement": "phosphorylation compared to Ara-C", "setting": "[6]", "value": "less easily phosphorylated as compared to Ara-C"}, {"measurement": "EC50", "setting": "[7]; Human immunodeficiency virus 1, another aspect of embodiments, read-out: EC50", "value": "~10", "unit": "nM"}, {"measurement": "EC50", "setting": "[7]; Human immunodeficiency virus 1, one aspect of embodiments", "value": "~0.7", "unit": "nM"}, {"measurement": "rescue of luciferase expression by dC, dT or both", "setting": "[3]", "value": "addition of dC but not dT may be able to rescue luciferase expression in treated cells"}, {"measurement": "rescue of luciferase expression by deoxycytidine", "setting": "[3]", "value": "Addition of dC appears to be able to rescue luciferase expression in treated cells; also recorded: Addition of dC is able to rescue luciferase expression in treated cells"}, {"measurement": "EC50", "setting": "[8]", "value": "< 0.7", "unit": "nM"}, {"measurement": "EC50", "setting": "[9]; Human immunodeficiency virus 1, read-out: EC50, inhibition of HIV replication, experimental T cell cancer lines", "value": "< 500", "unit": "nM"}, {"measurement": "concentration directly inhibiting HIV replication in vitro", "setting": "[9]; a number of experimental cell lines and primary cells", "value": "< 500", "unit": "nM"}, {"measurement": "inhibition of HIV replication on post infection treatment", "setting": "[9]; post exposure of cells infected with HIV-1, experimental cell lines", "value": "dramatically inhibit HIV replication"}, {"measurement": "reversal of cell growth inhibition by nucleosides", "setting": "[10]", "value": "reversed by deoxycytidine but not by thymidine and deoxyuridine"}, {"measurement": "thymidine incorporation", "setting": "[10]", "value": "inhibited thymidine incorporation into the acid-soluble fraction (DNA) of the cells"}]}
{"smiles": "Cc1cn([C@H]2C[C@H](N=[N+]=[N-])[C@@H](CO)O2)c(=O)[nH]c1=O", "note": "[AZT, zidovudine]", "values": [{"measurement": "dose dependent effect on Clone 64 cells", "setting": "[1]", "value": "dose dependent effect"}]}
{"smiles": "COc1ccc2[nH]c3c(C)c4ccncc4c(C)c3c2c1", "note": "[methoxyellipticine, Methoxyellipticine]", "values": [{"measurement": "anti-HIV activity in screen (luciferase expression)", "setting": "[1]", "value": "Anti-HIV activity was detected"}]}
